The source of these data is ChEMBL document CHEMBL4706492, “[1,2,3]Triazolo[4,5-d]pyrimidine derivatives incorporating (thio)urea moiety as a novel scaffold for LSD1 inhibitors” (Eur J Med Chem, 2020).

For orientation: IC50 means the concentration needed to halve the response being measured. For orientation: inhibition means the change of the read-out against control, counted positive when it falls.

One data set deals with PC-3. The experiment in a line: cells. The following applies: Homo sapiens, PC-3, 48 h.
The test system of the next data set is ECa-109 cell line. Description: cells. To be noted: Homo sapiens, ECa-109, 48 h.
The next data set has as its system B16-F10. The experiment in a line: cells. To be noted: Mus musculus, B16-F10, 48 h.
For a further data set, the system named is MGC-803. The experiment in a line: cells. To be noted: Homo sapiens, MGC-803, 48 h.
The target of data set [1] is T1, Lysine-specific histone demethylase 1A (Homo sapiens, UniProt O60341).
Data set [2] deals with Tyrosine-protein kinase BTK (Homo sapiens) (UniProt Q06187). Description: Inhibition of BTK (unknown origin) at 20 uM relative to control.
For data set [3], the target named is Cyclin-dependent kinase 6 (Homo sapiens) (UniProt Q00534). Description: Inhibition of CDK6 (unknown origin) at 20 uM relative to control.
Data set [4] concerns the target T1, Lysine-specific histone demethylase 1A. Description: Inhibition of LSD1 in human MGC803 assessed as reduction in H3K4me2 protein expression incubated for 24 hrs by Western blot analysis. To be noted: MGC-803, dose 10-40 µM. For orientation: In western blotting, separated proteins are transferred to a membrane and probed.
Data set [5] deals with Cyclin-dependent kinase 2 (Homo sapiens) (UniProt P24941). The experiment in a line: Inhibition of CDK2 (unknown origin) at 20 uM relative to control.
The target in the next data set is T2, MAO-B (Homo sapiens, UniProt P27338).
T2 sequence (P27338 whole entry): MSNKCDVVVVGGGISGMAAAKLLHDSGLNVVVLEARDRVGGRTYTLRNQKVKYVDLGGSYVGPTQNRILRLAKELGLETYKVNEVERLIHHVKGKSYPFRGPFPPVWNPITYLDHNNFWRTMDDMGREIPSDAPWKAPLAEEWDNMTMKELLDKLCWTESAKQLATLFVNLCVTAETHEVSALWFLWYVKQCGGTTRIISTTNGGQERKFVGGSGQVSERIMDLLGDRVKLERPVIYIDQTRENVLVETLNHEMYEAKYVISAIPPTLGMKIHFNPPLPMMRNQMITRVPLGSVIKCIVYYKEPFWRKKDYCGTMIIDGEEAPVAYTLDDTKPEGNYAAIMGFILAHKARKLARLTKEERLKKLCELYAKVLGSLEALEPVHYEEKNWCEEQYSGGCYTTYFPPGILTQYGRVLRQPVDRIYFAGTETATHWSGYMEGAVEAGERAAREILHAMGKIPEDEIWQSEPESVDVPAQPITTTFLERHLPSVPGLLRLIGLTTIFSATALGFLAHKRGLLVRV
Description: Inhibition of MAO-B (unknown origin) at 20 uM relative to control.

Data set [6] concerns the target Cyclin-dependent kinase 1 (Homo sapiens) (UniProt P06493). The experiment in a line: Inhibition of CDK1 (unknown origin) at 20 uM relative to control.
In data set [7] the target is T1, Lysine-specific histone demethylase 1A. Description: biochemical.
Description: Inhibition of recombinant human LSD1 (157 to 852 residues) expressed in Escherichia coli BL21 (DE) cells using H3K4me2 substrate incubated for 30 mins by amplex red assay
For another data set, the target named is T3, MAO-A (Homo sapiens, UniProt P21397).
T3 sequence (P21397 whole entry): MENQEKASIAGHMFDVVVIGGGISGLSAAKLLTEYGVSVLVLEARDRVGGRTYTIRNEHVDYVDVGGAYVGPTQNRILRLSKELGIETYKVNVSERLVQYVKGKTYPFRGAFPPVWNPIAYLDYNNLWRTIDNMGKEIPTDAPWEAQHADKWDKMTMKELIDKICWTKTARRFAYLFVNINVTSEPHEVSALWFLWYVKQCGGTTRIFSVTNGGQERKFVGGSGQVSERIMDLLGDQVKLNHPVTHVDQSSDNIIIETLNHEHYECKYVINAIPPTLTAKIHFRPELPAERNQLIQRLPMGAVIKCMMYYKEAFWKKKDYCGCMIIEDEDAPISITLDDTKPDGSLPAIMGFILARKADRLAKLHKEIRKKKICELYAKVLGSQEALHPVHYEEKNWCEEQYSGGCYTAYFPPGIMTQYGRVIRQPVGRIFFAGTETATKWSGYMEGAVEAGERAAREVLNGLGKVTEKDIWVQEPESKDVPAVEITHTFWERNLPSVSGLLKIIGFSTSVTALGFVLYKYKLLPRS
The experiment in a line: Inhibition of MAO-A (unknown origin) at 20 uM relative to control.

Each structure is given as a SMILES string.

Cyclin-dependent kinase 6 (Homo sapiens), sequence (Q00534 whole entry): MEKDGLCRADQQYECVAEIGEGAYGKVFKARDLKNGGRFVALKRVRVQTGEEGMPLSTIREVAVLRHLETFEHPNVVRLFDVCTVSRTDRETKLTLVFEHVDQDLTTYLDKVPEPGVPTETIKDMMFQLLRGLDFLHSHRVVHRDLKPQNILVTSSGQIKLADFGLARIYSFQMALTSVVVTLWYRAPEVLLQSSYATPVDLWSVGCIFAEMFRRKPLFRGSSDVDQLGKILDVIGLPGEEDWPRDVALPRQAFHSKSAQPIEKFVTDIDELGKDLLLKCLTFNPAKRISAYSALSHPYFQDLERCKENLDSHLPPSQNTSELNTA
Tyrosine-protein kinase BTK (Homo sapiens), sequence (Q06187 whole entry): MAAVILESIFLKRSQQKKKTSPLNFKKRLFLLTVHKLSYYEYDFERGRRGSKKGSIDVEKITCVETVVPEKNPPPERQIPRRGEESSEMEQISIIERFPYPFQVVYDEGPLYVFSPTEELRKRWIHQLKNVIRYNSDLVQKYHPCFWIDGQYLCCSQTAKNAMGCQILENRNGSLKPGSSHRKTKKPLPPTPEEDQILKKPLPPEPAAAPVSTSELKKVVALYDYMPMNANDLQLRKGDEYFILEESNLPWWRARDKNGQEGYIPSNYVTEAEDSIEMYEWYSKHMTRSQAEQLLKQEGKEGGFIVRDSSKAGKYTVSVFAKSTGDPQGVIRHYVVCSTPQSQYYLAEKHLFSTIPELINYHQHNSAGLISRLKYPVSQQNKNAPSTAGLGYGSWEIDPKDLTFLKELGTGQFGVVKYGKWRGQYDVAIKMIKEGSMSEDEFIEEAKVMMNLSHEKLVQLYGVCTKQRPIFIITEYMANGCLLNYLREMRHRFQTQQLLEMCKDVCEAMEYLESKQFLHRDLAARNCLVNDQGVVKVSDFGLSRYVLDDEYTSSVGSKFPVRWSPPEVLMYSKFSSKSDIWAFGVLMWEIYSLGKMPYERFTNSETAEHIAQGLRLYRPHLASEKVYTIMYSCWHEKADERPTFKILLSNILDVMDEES
Cyclin-dependent kinase 1 (Homo sapiens), sequence (P06493 whole entry, looked up): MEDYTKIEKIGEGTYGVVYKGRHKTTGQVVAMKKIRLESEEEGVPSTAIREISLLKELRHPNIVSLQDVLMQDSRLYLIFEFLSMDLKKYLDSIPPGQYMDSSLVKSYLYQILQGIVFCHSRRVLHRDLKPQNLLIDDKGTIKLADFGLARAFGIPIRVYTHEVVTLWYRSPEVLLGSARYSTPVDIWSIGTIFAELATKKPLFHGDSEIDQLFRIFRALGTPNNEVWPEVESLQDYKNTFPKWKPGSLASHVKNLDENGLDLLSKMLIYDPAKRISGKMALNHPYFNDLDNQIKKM
Description for B16-F10: Cytotoxicity against mouse B16-F10 cells assessed as reduction in cell viability after 48 hrs by MTT assay
Description for ECa-109 cell line: Cytotoxicity against human EC-109 cells assessed as reduction in cell viability after 48 hrs by MTT assay
Description for MGC-803: Cytotoxicity against human MGC-803 cells assessed as reduction in cell viability after 48 hrs by MTT assay
Description for PC-3: Cytotoxicity against human PC-3 cells assessed as reduction in cell viability after 48 hrs by MTT assay

For `CCCSc1nc2c(nnn2CCNC(=S)NCc2ccccc2)c(=O)[nH]1`, the IC50 with PC-3 is 25.5 µM; in the data set with ECa-109 cell line it was above 64 µM; in the data set on B16-F10, above 64 µM; in the data set on MGC-803, 46.3 µM.
Take `CCCSc1nc2c(nnn2CCNC(=S)Nc2ccc(OC)cc2)c(=O)[nH]1`: the IC50 in the data set with PC-3 was 15.6 µM; in the data set with ECa-109 cell line, 19.7 µM; in the data set on B16-F10, above 64 µM; in the data set with MGC-803 it was 20.7 µM.
As for `CCCSc1nc2c(nnn2CCNC(=S)Nc2cccc3ccccc23)c(=O)[nH]1`, the Ratio IC50 in [1] is 3. Besides, the inhibition in data set [2] was below 10%; in data set [3] it was 20%; in data set [4] it was “Dose-dependent effect”; in data set [5] it was below 10%; in data set [6], below 10%. Also, the IC50 in the data set on PC-3 turned out to be 9.15 µM; in the data set on ECa-109 cell line, 9.88 µM; in the data set with B16-F10, 11.5 µM; in data set [7] it was 9.75 µM; with MGC-803, 8.3 µM. Further, the values for the inhibition at 20 µM at MAO-B and against MAO-A were 11.8% and 3.9%, respectively.
In the case of `CCCSc1nc2c(nnn2CCNC(=S)Nc2ccccc2Cl)c(=O)[nH]1`, the IC50 in the data set with PC-3 was 23.4 µM; in the data set on ECa-109 cell line, above 64 µM; in the data set on B16-F10, 14.2 µM; in the data set with MGC-803, 26 µM.
